Laboratory results published in article PMC12723449, “From Pharmacophore to Warhead: NAD^+‐Targeting Triazoles as Mechanism‐Based Sirtuin Inhibitors” (Angewandte Chemie (International Ed. in English), 2025).

Experiments:
[1] = molecular target: T1, SIRT2 (Homo sapiens, UniProt Q8IXJ6); test: Differential scanning fluorimetry (DSF) / fluorescence thermal shift assay; format: binding
T1 construct: For assay experiments, strep-tagged human SIRT1134−747 and SIRT256-356 were expressed and purified as previously; Strep-tag; made in house; host or cells: E. coli BL21 Star (DE3)
T1 sequence (Q8IXJ6 56-356 limits assumed): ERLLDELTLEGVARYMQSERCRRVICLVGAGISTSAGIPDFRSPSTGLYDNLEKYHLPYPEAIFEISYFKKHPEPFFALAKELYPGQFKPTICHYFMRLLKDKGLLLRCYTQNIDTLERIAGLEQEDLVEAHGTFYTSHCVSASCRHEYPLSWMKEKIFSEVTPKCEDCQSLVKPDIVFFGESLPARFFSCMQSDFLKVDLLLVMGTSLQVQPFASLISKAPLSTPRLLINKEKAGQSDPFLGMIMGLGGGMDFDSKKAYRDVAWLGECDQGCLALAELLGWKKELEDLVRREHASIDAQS
Procedure: Differential scanning fluorimetry (DSF) assay
Differential scanning fluorimetry assays were performed in white 96-well plates (Hard-Shell PCR Plates, BioRad, USA) with a total volume of 20 µL per well and a final DMSO concentration of 5% (v/v), following a published
A solution of 10 µL SIRT2 (final concentration of 6.0 µM) and SYPRO Orange (5x, Sigma-Aldrich, Germany) in assay buffer (25 mM Tris-HCl, 150 mM NaCl, 1 mM DTT, pH 8.0) was mixed with 10 µL of compound and incubated at 25 °C and 350 rpm for 5 min. Where applicable, NAD+ was added to a final concentration of 2.5 mM. Fluorescence
(C1000 Touch™ Thermal Cycler, CFX96™ Real-Time System, BioRad, USA). Melting temperatures were determined using GraphPad Prism, following a published procedure.[6]

[2] = test system: α‐tubulin; design: method as in PMID 35441145; settings: cited from earlier work
[3] = molecular target: T1, SIRT2; test: CE-ESI-MS analysis of adducts formed in vitro; format: biochemical; settings: SIRT2 incubated with NAD+ and compound, thermal denaturation
Procedure: Capillary electrophoresis–electrospray ionization–mass spectrometry (CE-ESI-MS) analysis of […]
Analysis of the enzymatic products were performed using a capillary electrophoresis coupled to mass spectrometry method (CE-MS) described first in the separation of inositol (pyro)phosphates.[11] CE (Agilent 7100 CE system) was coupled to a time-of-flight mass spectrometry Agilent 6545 system and ionization was performed with a commercially available Agilent Jet Stream (AJS) electrospray ionization (ESI) source. An Agilent liquid coaxial interface was used and the ionization spray was stabilized with a water-isopropanol (1:1 v/v) mixture as sheath liquid. The sheath liquid was pumped with an Agilent 1200 isocratic LC pump, using a 1:100 splitter and resulting in a flow of 1.5 µl/min.
A mixture of SIRT256-356 (final concentration of 11 mg/mL) in SEC buffer, compound 1 or 7 (3.33 mM of inhibitor with a final DMSO concentration of 3.33 % (v/v)) and NAD+ (final concentration of 10 mM) were incubated for 90 min and centrifuged for 5 min to remove inhibitor precipitate. Following SIRT2 denaturation at 65 °C for 1 min and centrifugation for 5 min to remove precipitated protein, 20 nL of each sample was injected under 100 mbar pressure for 20 s. […] Analytes were detected in negative ionization mode, a capillary voltage of -3000 V and an ESI spray current of 2.1 µA. […]

[4] = molecular target: T1, SIRT2; test: Fluorescence-based deacetylation assay (ZMAL-assay), SIRT2; format: biochemical; settings: 37 °C, assay limit 0.10 µM, read-out: SIRT2 (deac.) IC50
Procedure: Determination of IC50 values (SIRT1, SIRT2, SIRT3) via fluorescence-based deacetylation assay […]
The fluorescence-based deacetylation assay was conducted in a black 384-well microplate (OptiPlate-384 F, PerkinElmer) with a total volume of 30 µL per well and a final DMSO concentration of 2% (v/v) according to a […]
concentration of 100 nM) in assay buffer (50 mM Tris, 137 mM NaCl, 2.7 mM KCl, 1m MgCl2, 0.01% Tween, 0.05 mg/mL BSA, 0.2 mM TCEP, pH 8.0), 5 µL of substrate (ZMAL, final concentration of 10.5 µM), 5 µL of NAD+ (final concentration of 500 µM) and 10 µL of inhibitor solution (final concentration of 30 µM – 0.014 µM, serial 1:3 dilutions) was incubated at 37 °C and 300 rpm for 4 h. A solution of trypsin (final concentration of 0.5 mg/mL) and nicotinamide (final concentration of 4 mM) was added and incubated at 37 °C and 300 rpm for 30 min to stop the reaction. Samples with 2% (v/v) DMSO instead of inhibitor were prepared as a positive control, and samples with 2% (v/v) DMSO instead of SIRT enzyme were prepared as a negative control. Fluorescence intensity was measured with a microplate reader (λEx = 380-10 nm, λEm = 460 nm, BMG POLARstar Optima, BMG Labtech, Germany). IC50 values were then determined using a nonlinear regression fit with Origin Pro 2019 software. All experiments were performed at least in duplicates. […]

Row | SMILES | NAD+-dependent thermal stabilization of SIRT2 ([1]; upon NAD+ addition) | α-tubulin hyperacetylation [2] | ADPR adduct detected in solution by CE-ESI-MS [3] | IC50 [4] [µM] | ΔTm at 10 µM ([1]; 10 µM compound, with NAD+ addition) [°C]
1 | COCCn1cc(COc2cccc(Cc3cnc(NC(=O)CSc4nc(C)cc(C)n4)s3)c2)nn1 [Compound 1, reference compound] | pronounced NAD^+‐dependent thermal stabilization | pronounced α‐tubulin hyperacetylation | undetectable | – | –
2 | Cc1cc(C)nc(SCC(=O)Nc2ncc(Cc3cccc(OCc4c[nH]nn4)c3)s2)n1 [Compound 7] | – | – | confirmed release of 7–ADPR | 7.8 ± 2.1 | –
3 | CCCCCCCCCCCCc1cn(CCCC[C@H](NC(=O)[C@H](CCCCN)NC(=O)[C@@H]2CCCN2C(=O)[C@H](CC(C)C)NC(=O)[C@H](C)NC(=O)[C@H](CCC(=O)O)NC(C)=O)C(=O)N[C@H](C(=O)NCC(=O)NCC(N)=O)[C@@H](C)O)nn1 [Compound 6] | – | – | – | < 0.1 | 16.3 ± 0.1
